Data: ChEMBL document CHEMBL5137013 (Eur J Med Chem, 2022)
Activity calls are given as the source filed them. The calls are words filed in the database; no cut-off is given here.

Legend:
MDA-MB-231 = experiment: Cytotoxicity against human MDA-MB-231 cells assessed as reduction in cell viability measured after 24 hrs by MTT assay; format: functional, cell-based; details: MDA-MB-231, 24 h
HT-29 [1] = experiment: Induction of apoptosis in human HT-29 cells assessed as up regulation of phosphorylated Bcl-2 expression at 25 to 100 nM measured after 24 hrs by Western blot analysis; format: functional, cell-based; details: dose 25-100 nM
Tubulin (Homo sapiens) [2] = molecular target: T1, Tubulin (Homo sapiens) (UniProt P68371+Q9H4B7+P0DPH7+P68366+Q13509+Q71U36+P04350+Q3ZCM7+P07437+P68363+Q9BQE3+Q6PEY2+Q13885+Q9BVA1+Q9BUF5); experiment: Inhibition of tubulin polymerization in human HT-29 cells assessed as up regulation of acetylated-alpha-tubulin expression at 25 to 100 nM measured after 24 hrs by Western blot analysis; format: cell-based; details: dose 25-100 nM
HUVEC = experiment: Antiangiogenic activity in HUVEC assessed as inhibition of tube formation at 12.5 to 50 nM incubated for 24 hrs by matrigel assay; format: functional, cell-based; details: Homo sapiens, dose 12.5-50 nM
[3] = Clearance in Sprague-Dawley rat at 10 mg/kg, iv by HPLC-MS/MS analysis; format: ADME, organism-based; details: in vivo
HT-29 [4] = experiment: Induction of mitochondrial dysfunction in human HT-29 cells assessed as reduction in red fluorescence intensity measured after 24 hrs by JC-1 staining based JC-1 dye based confocal laser scanning microscopy; format: functional, cell-based; details: dose 25-100 nM, DDE = dose-dependent effect
HT-29 [5] = experiment: Cytotoxicity against human HT-29 cells assessed as reduction in cell viability measured after 24 hrs by MTT assay; format: functional, cell-based; details: HT-29, 24 h
HT-29 [6] = experiment: Antitumor activity against human HT-29 cells xenografted in BALB/c nude mouse assessed as reduction in tumor weight at 10 mg/kg, ip administered as 2 days interval for 3 weeks and measured 3 weeks post-initial dosing relative to control; format: functional; set-up: scale not given: the % may be the effect or the level left
HT-29 [7] = experiment: Cell cycle arrest in human HT-29 cells assessed as effect on cyclin B1 expression at 25 to 100 nM measured after 24 hrs by Western blot analysis; format: functional, cell-based; details: dose 25-100 nM
HT-29 [8] = experiment: Induction of apoptosis in human HT-29 cells assessed as increase in cleaved PARP expression at 25 to 100 nM measured after 24 hrs by Western blot analysis; format: functional, cell-based; details: dose 25-100 nM
[9] = (§1) Inhibition of porcine brain tubulin polymerization measured at 1 min interval for 60 mins by fluorescence assay; set-up: species or system Sus scrofa
Sus scrofa = organism: Sus scrofa; experiment: as §1; details: dose 1.25-5 µM, DDE = dose-dependent effect
HT-29 [10] = experiment: Cell cycle arrest in human HT-29 cells assessed as effect on cdc2 expression at 25 to 100 nM measured after 24 hrs by Western blot analysis; format: functional, cell-based; details: dose 25-100 nM
[11] = Toxicity in human HT-29 cells xenografted BALB/c nude mouse assessed as effect on spleen at 5 to 10 mg/kg, ip administered as 2 days interval for 3 weeks and measured 3 weeks post-initial dosing by H and E staining based histopathological analysis; format: organism-based; details: in vivo, 504 h, dose 5-10 mg/kg
Tubulin (Homo sapiens) [12] = molecular target: T1, Tubulin (Homo sapiens); experiment: Inhibition of tubulin polymerization in human HT-29 cells assessed as up regulation of detyrosinated-alpha-tubulin expression at 25 to 100 nM measured after 24 hrs by Western blot analysis; format: cell-based; details: dose 25-100 nM
HT-29 [13] = experiment: Cell cycle arrest in human HT-29 cells assessed as increase in cell accumulation at G2/M phase measured after 24 hrs by propidium iodide staining based flow cytometry; format: functional; details: dose 12.5-100 nM, DDE = dose-dependent effect
HT-29 [14] = experiment: Induction of mitochondrial dysfunction in human HT-29 cells assessed as increase in green fluorescence intensity measured after 24 hrs by JC-1 staining based JC-1 dye based confocal laser scanning microscopy; format: functional, cell-based; details: dose 25-100 nM, DDE = dose-dependent effect
HT-29 [15] = experiment: Inhibition of colony formation in human HT-29 cells at 100 nM measured after 24 hrs by crystal violet staining based assay; format: functional
HT-29 [16] = experiment: Induction of ROS generation in human HT-29 cells measured after 24 hrs by DCFH-DA dye based confocal laser scanning microscopy; format: functional, cell-based; details: dose 25-100 nM, DDE = dose-dependent effect
A549 [17] = experiment: Antimigratory activity against human A549 cells assessed as reduction in number of penetrated cells at 12.5 to 100 nM measured after 24 hrs by crystal violet staining based transwell assay; format: functional, cell-based; details: dose 12.5-100 nM
HT-29 [18] = experiment: Induction of apoptosis in human HT-29 cells assessed as increase in cleaved caspase-9 expression at 25 to 100 nM measured after 24 hrs by Western blot analysis; format: functional, cell-based; details: dose 25-100 nM
HT-29 [19] = experiment: Induction of apoptosis in human HT-29 cells assessed as increase in cleaved caspase-3 expression at 25 to 100 nM measured after 24 hrs by Western blot analysis; format: functional, cell-based; details: dose 25-100 nM
HT-29 [20] = experiment: Induction of apoptosis in human HT-29 cells assessed as up regulation of Bcl-2 expression at 25 to 100 nM measured after 24 hrs by Western blot analysis; format: functional, cell-based; details: dose 25-100 nM
HeLa = experiment: Cytotoxicity against human HeLa cells assessed as reduction in cell viability measured after 24 hrs by MTT assay; format: functional, cell-based
[21] = Toxicity in human HT-29 cells xenografted BALB/c nude mouse assessed as effect on heart at 5 to 10 mg/kg, ip administered as 2 days interval for 3 weeks and measured 3 weeks post-initial dosing by H and E staining based histopathological analysis; format: organism-based; details: in vivo, 504 h, dose 5-10 mg/kg
Tubulin (Homo sapiens) [22] = molecular target: T1, Tubulin (Homo sapiens); experiment: Induction of microtubule disruption in human HT-29 cells measured after 6 hrs by immunofluorescence assay; format: cell-based; details: dose 25-100 nM, DDE = dose-dependent effect
Tubulin (Homo sapiens) [23] = molecular target: T1, Tubulin (Homo sapiens); experiment: Displacement of [3H] colchicine from tubulin (unknown origin) at 2.5 uM measured after 2 hrs by scintillation counting analysis relative to control; format: protein-complex assay
[24] = Cytotoxicity against human MCF7/TxR cells assessed as reduction in cell viability measured after 24 hrs by MTT assay; format: functional, cell-based
HT-29 [25] = experiment: Inhibition of colony formation in human HT-29 cells at 12.5 nM measured after 24 hrs by crystal violet staining based assay; format: functional, cell-based
[26] = Toxicity in human HT-29 cells xenografted BALB/c nude mouse assessed as body weight loss at 5 to 10 mg/kg, ip administered as 2 days interval for 3 weeks and measured 3 times a week during compound dosing; format: organism-based; details: in vivo, 504 h, dose 5-10 mg/kg
[27] = Resistance index, ratio of IC50 for human MCF7/TxR cells to IC50 for human MCF7 cells; format: functional
[28] = Toxicity in human HT-29 cells xenografted BALB/c nude mouse assessed as effect on lung at 5 to 10 mg/kg, ip administered as 2 days interval for 3 weeks and measured 3 weeks post-initial dosing by H and E staining based histopathological analysis; format: organism-based; details: in vivo, 504 h, dose 5-10 mg/kg
HT-29 [29] = experiment: Antitumor activity against human HT-29 cells xenografted in ip dosed BALB/c nude mouse assessed as tumor growth inhibition administered at 2 days interval for 3 weeks; format: functional, organism-based; details: DDE = dose-dependent effect
HT-29 [30] = experiment: Cell cycle arrest in human HT-29 cells assessed as effect on cdk7 expression at 25 to 100 nM measured after 24 hrs by Western blot analysis; format: functional, cell-based; details: dose 25-100 nM
Tubulin (Homo sapiens) [31] = molecular target: T1, Tubulin (Homo sapiens); experiment: Displacement of [3H] colchicine from tubulin (unknown origin) at 5 uM measured after 2 hrs by scintillation counting analysis relative to control; format: protein-complex assay
A549 [32] = experiment: Cytotoxicity against human A549 cells assessed as reduction in cell viability measured after 24 hrs by MTT assay; details: A549, 24 h
HT-29 [33] = experiment: Induction of apoptosis in human HT-29 cells assessed as up regulation of Bax expression at 25 to 100 nM measured after 24 hrs by Western blot analysis; format: functional, cell-based; details: dose 25-100 nM

- inhibition (Tubulin (Homo sapiens) [2]): Active
- CL [3]: 29.3 mL/min/kg
- IC50 [9]: 1090 nM
- inhibition (Sus scrofa): Dde
- inhibition (Tubulin (Homo sapiens) [12]): Active
- Activity (Tubulin (Homo sapiens) [22]): Dde
- inhibition (Tubulin (Homo sapiens) [23]): 77.6%
- inhibition (Tubulin (Homo sapiens) [31]): 93.5%
Compound: COC(=O)c1cc2c(cc1Nc1cc(OC)c(OC)c(OC)c1)OCCO2
- IC50 (MDA-MB-231): 100 nM
- Activity (HT-29 [1]): Active
- inhibition (HUVEC): Active
- Activity (HT-29 [4]): Dde
- IC50 (HT-29 [5]): 23 nM
- Activity (HT-29 [6]): 75.5%
- Activity (HT-29 [7]): Active
- Activity (HT-29 [8]): Active
- Activity (HT-29 [10]): Active
- Activity [11]: Non-Toxic
- Activity (HT-29 [13]): Dde
- Activity (HT-29 [14]): Dde
- inhibition at 0.1 µM (HT-29 [15]): 100%
- Activity (HT-29 [16]): Dde
- Activity (A549 [17]): Active
- Activity (HT-29 [18]): Active
- Activity (HT-29 [19]): Active
- Activity (HT-29 [20]): Active
- IC50 (HeLa): 35 nM
- Activity [21]: Non-Toxic
- IC50 [24]: 180 nM
- inhibition (HT-29 [25]): Active
- Activity [26]: Non-Toxic
- Ratio IC50 [27]: 1.3
- Activity [28]: Non-Toxic
- TGI (HT-29 [29]): Dde
- Activity (HT-29 [30]): Active
- IC50 (A549 [32]): 240 nM
- Activity (HT-29 [33]): Active
